Laboratory results: patent US8642788B2, “Activators of executioner procaspases 3, 6 and 7” (The Regents of the University of California, priority 2008, dated 2014)

Columns and labels:
Type in all cases: biochemical
procaspase-3 = molecular target: T1, procaspase-3 (Homo sapiens, UniProt P42574); assay: Executioner procaspase-3 activation assay (Ac-DEVD-AFC fluorogenic substrate); settings: incubation with compound for 5 h at 37° C.; 100 nM procaspase; read-out: Procaspase Activation 3
T1 construct: His6 (C); made in house; host or cells: E. coli BL21(DE3)RP, pET-23b
T1 sequence (P42574 1-277): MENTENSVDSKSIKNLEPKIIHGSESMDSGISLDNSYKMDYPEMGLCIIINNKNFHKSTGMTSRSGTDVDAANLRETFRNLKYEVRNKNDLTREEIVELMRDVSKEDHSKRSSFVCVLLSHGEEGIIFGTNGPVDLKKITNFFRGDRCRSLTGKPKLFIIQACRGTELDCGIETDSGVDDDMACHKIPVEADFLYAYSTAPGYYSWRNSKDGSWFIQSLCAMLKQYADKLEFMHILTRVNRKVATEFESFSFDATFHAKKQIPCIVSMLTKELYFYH
Procedure: The executioner procaspase-3, -6 and -7 activation assay protocol involves incubating the target protein at the physiologically-relevant concentration of 100 nM with activating compounds (ranging from 100 nM to 100 uM) in a total volume of 50 μL consisting of a reaction buffer of 50 mM HEPES, pH 7.4, 50 mM KCl, 1 mM DTT and 0.01% Triton-X100 (to reduce false positive hits due to compound aggregation). […] All components of the assay including protein, substrate and inhibitor are stored as frozen aliquots and thawed immediately prior to the assay.

procaspase-6 = molecular target: T2, procaspase-6 (Homo sapiens, UniProt P55212); assay: Executioner procaspase-6 activation assay (Ac-VEID-AFC fluorogenic substrate); settings: incubation with compound for 5 h at 37° C.; 100 nM procaspase
T2 sequence (P55212 1-293): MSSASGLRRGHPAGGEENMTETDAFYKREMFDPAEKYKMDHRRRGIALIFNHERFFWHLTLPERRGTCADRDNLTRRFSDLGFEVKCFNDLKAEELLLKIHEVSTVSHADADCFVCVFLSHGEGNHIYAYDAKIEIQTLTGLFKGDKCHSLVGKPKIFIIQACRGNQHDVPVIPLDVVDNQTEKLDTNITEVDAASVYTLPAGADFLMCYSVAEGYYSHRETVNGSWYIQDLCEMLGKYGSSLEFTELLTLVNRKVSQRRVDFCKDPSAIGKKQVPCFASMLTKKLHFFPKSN
Procedure: (§1) The executioner procaspase-3, -6 and -7 activation assay protocol involves incubating the target protein at the physiologically-relevant concentration of 100 nM with activating compounds (ranging from 100 nM to 100 uM) in a total volume of 50 μL consisting of a reaction buffer of 50 mM HEPES, pH 7.4, 50 mM KCl, 1 mM DTT and 0.01% Triton-X100 (to reduce false positive hits due to compound aggregation). The procaspase/small molecule incubations are then agitated at 37° C. and assayed at various time points by addition of the fluorogenic peptide substrate 7-Amino-4-trifluoromethylcoumarin-DEVD (Ac-DEVD-AFC) (procaspases-3, -7) or Ac-VEID-AFC (procaspase-6) to a final concentration of 25 μM and analyzed by a kinetic 30 minute assay (excitation 365 nm and emission 495 nm). The final concentration of DMSO in each well is 3% and has no effect on enzyme stability or activity. […] All components of the assay including protein, substrate and inhibitor are stored as frozen aliquots and thawed immediately prior to the assay.
(§2) Tables 1 and 2. Procaspase activation as a result of incubation with compound for 5 h at 37° C. (+++ EC50˜0.5-10 μM; ++ EC50˜10-50 μM; + EC50˜50-200 μM; -no activation observed; ND not determined).

procaspase-7 = molecular target: T3, procaspase-7 (Homo sapiens, UniProt P55210); assay: Executioner procaspase-7 activation assay (Ac-DEVD-AFC fluorogenic substrate); settings: incubation with compound for 5 h at 37° C.; 100 nM procaspase
T3 construct: His6 (C); made in house; host or cells: E. coli BL21(DE3)RP, pET-21b
T3 sequence (P55210 1-303): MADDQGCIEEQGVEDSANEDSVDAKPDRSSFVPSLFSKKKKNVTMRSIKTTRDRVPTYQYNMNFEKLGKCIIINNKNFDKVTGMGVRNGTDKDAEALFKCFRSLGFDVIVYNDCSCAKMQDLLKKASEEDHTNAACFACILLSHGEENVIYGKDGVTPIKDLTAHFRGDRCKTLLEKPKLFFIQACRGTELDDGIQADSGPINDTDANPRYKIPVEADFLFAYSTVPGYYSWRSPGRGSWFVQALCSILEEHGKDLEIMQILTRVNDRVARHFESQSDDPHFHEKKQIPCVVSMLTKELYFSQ
Procedure: as §1, §2

SMILES | EC50 (procaspase-3) [µM] | EC50 (procaspase-6) [µM] | EC50 (procaspase-7) [µM]
O=C(Nc1cccc(-c2nc3ccccc3[nH]2)c1)c1cc2cccc(O)c2oc1=O [compound 15, 8-Hydroxy-2-oxo-2H-chromene-3-carboxylic acid [3-(1H-benzoimidazol-2-yl)-phenyl]-amide] | > 100 | > 100 | > 100
O=C(Nc1cccc(N2CCOCC2)c1)c1cc2cccc(O)c2oc1=O [compound 16, 8-Hydroxy-2-oxo-2H-chromene-3-carboxylic acid (3-morpholin-4-yl-phenyl)-amide] | > 100 | > 100 | > 100
O=C(Nc1cccc(-c2cccnc2)c1)c1cc2cccc(O)c2oc1=O [compound 17, 8-Hydroxy-2-oxo-2H-chromene-3-carboxylic acid (3-pyridin-3-yl-phenyl)-amide] | > 100 | > 100 | > 100
COc1cccc2cc(C(=O)Nc3cccc(-c4cccnc4)c3)c(=O)oc12 [compound 18, 8-Methoxy-2-oxo-2H-chromene-3-carboxylic acid (3-pyridin-3-yl-phenyl)-amide] | > 100 | > 100 | > 100
O=C(Nc1cccc(-c2ccncc2)c1)c1cc2cccc(O)c2oc1=O [compound 19, 8-Hydroxy-2-oxo-2H-chromene-3-carboxylic acid (3-pyridin-4-yl-phenyl)-amide] | 0.5 to 10 | 0.5 to 10 | 50 to 200
CCOc1ncccc1-c1cccc(NC(=O)c2cc3cccc(O)c3oc2=O)c1 [compound 41, 8-Hydroxy-2-oxo-2H-chromene-3-carboxylic acid [3-(2-ethoxy-pyridin-3-yl)-phenyl]-amide] | 10 to 50 | 50 to 200 | > 100
CCOc1ncccc1-c1cccc(NC(=O)c2cc3cccc(OC)c3oc2=O)c1 [compound 42, 8-Methoxy-2-oxo-2H-chromene-3-carboxylic acid [3-(2-ethoxy-pyridin-3-yl)-phenyl]-amide] | > 100 | > 100 | > 100
CCOc1ncccc1-c1cccc(NC(=O)c2cc3cccc(OC(F)(F)F)c3oc2=O)c1 [compound 43, 8-Trifluoromethoxy-2-oxo-2H-chromene-3-carboxylic acid [3-(2-ethoxy-pyridin-3-yl)-phenyl]-amide] | > 100 | > 100 | > 100
COc1ccc(-c2cccc(NC(=O)c3cc4cccc(O)c4oc3=O)c2)cc1 [compound 44, 8-Hydroxy-2-oxo-2H-chromene-3-carboxylic acid (4′-Methoxy-biphenyl-3-yl)-amide] | > 100 | > 100 | 0.5 to 10
COc1ccc(-c2cccc(NC(=O)c3cc4cccc(OC(F)(F)F)c4oc3=O)c2)cc1 [compound 46, 8-Trifluoromethoxy-2-oxo-2H-chromene-3-carboxylic acid (4′-Methoxy-biphenyl-3-yl)-amide] | > 100 | > 100 | > 100
COc1ccc(-c2cccc(NC(=O)c3cc4cccc(O)c4oc3=O)c2)cc1C [compound 47, 8-Hydroxy-2-oxo-2H-chromene-3-carboxylic acid (4′-Methoxy-3′-methyl-biphenyl-3-yl)-amide] | > 100 | > 100 | > 100
COc1ccc(-c2cccc(NC(=O)c3cc4cccc(OC)c4oc3=O)c2)cc1C [compound 48, 8-Methoxy-2-oxo-2H-chromene-3-carboxylic acid (4′-Methoxy-3′-methyl-biphenyl-3-yl)-amide] | > 100 | > 100 | > 100
COc1ccc(-c2cccc(NC(=O)c3cc4cccc(OC(F)(F)F)c4oc3=O)c2)cc1C [compound 49, 8-Trifluoromethoxy-2-oxo-2H-chromene-3-carboxylic acid (4′-Methoxy-3′-methyl-biphenyl-3-yl)-amide] | > 100 | > 100 | > 100
COc1ccc(-c2cccc(NC(=O)c3cc4cccc(O)c4oc3=O)c2)c(OC)c1 [compound 50, 8-Hydroxy-2-oxo-2H-chromene-3-carboxylic acid (2′,4′-dimethoxy-biphenyl-3-yl)-amide] | > 100 | > 100 | > 100
COc1ccc(-c2cccc(NC(=O)c3cc4cccc(OC)c4oc3=O)c2)c(OC)c1 [compound 51, 8-Methoxy-2-oxo-2H-chromene-3-carboxylic acid (2′,4′-dimethoxy-biphenyl-3-yl)-amide] | > 100 | > 100 | > 100
COc1ccc(-c2cccc(NC(=O)c3cc4cccc(OC(F)(F)F)c4oc3=O)c2)c(OC)c1 [compound 52, 8-Trifluoromethoxy-2-oxo-2H-chromene-3-carboxylic acid (2′,4′-dimethoxy-biphenyl-3-yl)-amide] | > 100 | > 100 | > 100
COc1ccc(-c2cccc(NC(=O)c3cc4cccc(O)c4oc3=O)c2)cc1OC [compound 53, 8-Hydroxy-2-oxo-2H-chromene-3-carboxylic acid (3′,4′-Dimethoxy-biphenyl-3-yl)-amide] | > 100 | > 100 | 0.5 to 10
COc1ccc(-c2cccc(NC(=O)c3cc4cccc(OC)c4oc3=O)c2)cc1OC [compound 54, 8-Methoxy-2-oxo-2H-chromene-3-carboxylic acid (3′,4′-Dimethoxy-biphenyl-3-yl)-amide] | > 100 | > 100 | > 100
COc1ccc(-c2cccc(NC(=O)c3cc4cccc(OC(F)(F)F)c4oc3=O)c2)cc1OC [compound 55, 8-Trifluoromethoxy-2-oxo-2H-chromene-3-carboxylic acid (3′,4′-Dimethoxy-biphenyl-3-yl)-amide] | > 100 | > 100 | > 100
COc1ccc(OC)c(-c2cccc(NC(=O)c3cc4cccc(O)c4oc3=O)c2)c1 [compound 56, 8-Hydroxy-2-oxo-2H-chromene-3-carboxylic acid (2′,5′-dimethoxy-biphenyl-3-yl)-amide] | > 100 | > 100 | > 100
COc1ccc(OC)c(-c2cccc(NC(=O)c3cc4cccc(OC)c4oc3=O)c2)c1 [compound 57, 8-Methoxy-2-oxo-2H-chromene-3-carboxylic acid (2′,5′-dimethoxy-biphenyl-3-yl)-amide] | > 100 | > 100 | > 100
COc1ccc(OC)c(-c2cccc(NC(=O)c3cc4cccc(OC(F)(F)F)c4oc3=O)c2)c1 [compound 58, 8-Trifluoromethoxy-2-oxo-2H-chromene-3-carboxylic acid (2′,5′-dimethoxy-biphenyl-3-yl)-amide] | > 100 | > 100 | > 100
O=C(Nc1cccc(-c2ccc(Oc3ccccc3)cc2)c1)c1cc2cccc(O)c2oc1=O [compound 59, 8-Hydroxy-2-oxo-2H-chromene-3-carboxylic acid (4′-phenoxy-biphenyl-3-yl)-amide] | > 100 | > 100 | > 100
COc1cccc2cc(C(=O)Nc3cccc(-c4ccc(Oc5ccccc5)cc4)c3)c(=O)oc12 [compound 60, 8-Methoxy-2-oxo-2H-chromene-3-carboxylic acid (4′-phenoxy-biphenyl-3-yl)-amide] | > 100 | > 100 | > 100
